Laboratory results published in patent US10124012B2, “Method for treatment of hyperglycemia and hyperlipidemia” (priority 2016, dated 2018).

Legend:
human neutrophils = conditions: concentration-dependent 1˜25 mM; induced by fMLP and TPA in human neutrophils; cited from earlier work
[1] = tested on: high-fat diet-fed C57BL/6J mouse; test: Histopathology of liver (hepatocellular ballooning); assay type: in vivo, C57BL/6J mice; conditions: grade 0 absence, 1 few cells, 2 many cells (Table 4), HFD-fed mice
Protocol: (§1) Animal studies were performed and approved under the guidelines of the Institutional Animal Care and Use Committee in Taiwan (12 Mar. 2015). The 4-week old male C57BL/6J mice (total amount n=63) were obtained from the National Laboratory Animal Center (Taipei, Taiwan). After acclimatization for one week, all of the mice were randomly assigned into a control (CON) group and a high-fat diet (HFD) group. For the following 12 weeks, the CON group (n=9) received a control diet or a low-fat diet (Diet 12450B, Research Diets, Inc., New Brunswick, N.J., USA), while the HFD group (n=54) received a high-fat diet (Diet 12451, Research Diets, New Brunswick, N.J., USA). The low-fat diet was composed of protein 20%, carbohydrate 70% and fat 10%, whereas the high-fat diet was composed of protein 20%, carbohydrate 35%, and fat 45% (of total energy, % kcal). After HFD feeding for 8 weeks, the HFD group was randomly subdivided into six groups (n=9 per group) receiving different treatments and fed on HFD. […] The HF+AnK1, HF+AnK2, and HF+AnK3 groups are collectively termed AnK-treated HFD groups in the following examples. The CON mice were administered vehicle. All treatments were administered via oral gavage once daily. After administration for 4 weeks, all mice were fasted 12 hours, and blood was collected from the retro-orbital sinus under ether anesthesia. At the end of the experiment, the mice were sacrificed via carbon dioxide inhalation. Liver, adipose tissue, and skeletal muscle were collected and immediately stored at −80° C. for target gene analysis.
(§2) Parts of visceral adipose and liver specimens were fixed with formalin (200 g/kg) neutral buffered solution and embedded in paraffin. A series of 8 μm-thick sections was cut and stained with hematoxylin and eosin. For microscopic examination, a microscope (Olympus BX51, Olympus, Tokyo, Japan) was used and the images were photographed.
On the basis of previous study, the degree of hepatocellular ballooning is defined in TABLE 4: […]

membrane GLUT4 = test: Western blotting of skeletal muscular membrane GLUT4 in HFD-fed mice; assay type: in vivo, C57BL/6J mice; conditions: skeletal muscle, AnK 10, 20, 40, Feno 250, Metf 300 mg/kg/day, as compared with the HF group
From the text: The 4-week old male C57BL/6J mice (total amount n=63) were obtained from the National Laboratory Animal Center (Taipei, Taiwan). After acclimatization for one week, all of the mice were randomly assigned into a control (CON) group and a high-fat diet (HFD) group. […] After HFD feeding for 8 weeks, the HFD group was randomly subdivided into six groups (n=9 per group) receiving different treatments and fed on HFD. […] The HF+AnK1, HF+AnK2, and HF+AnK3 groups are collectively termed AnK-treated HFD groups in the following examples. The CON mice were administered vehicle. All treatments were administered via oral gavage once daily. After administration for 4 weeks, all mice were fasted 12 hours, and blood was collected from the retro-orbital sinus under ether anesthesia. At the end of the experiment, the mice were sacrificed via carbon dioxide inhalation. Liver, adipose tissue, and skeletal muscle were collected and immediately stored at −80° C. for target gene analysis.
About 0.1 g of liver tissue, skeletal muscle, or adipose tissue was used for the homogenate samples. Samples were powdered under liquid nitrogen and homogenized for 20 seconds in 500 μL buffer containing 20 mM Tris-HCl (pH 7.4 at 4° C.), 2% SDS, 5 mM EDTA, 5 mM EGTA, 1 mM dithiothreitol (DTT), 100 mM NaF, 2 mM sodium vanadate, 0.5 mM phenylmethylsulfonyl fluoride, 10 μg/mL leupeptin, and 10 μL/mL pepstatin. The total membrane fraction was used for measurement. The protein concentration in supernatant was determined with a BCA protein assay kit (Thermo Scientific, Rockford, Ill., USA). […] The membrane was blocked with 5% slim milk in Tris-buffered saline (TBS)(Amersham BioSciences, Uppsala, Sweden) containing 0.05% Tween-20 (Bio Rad, CA, USA) and incubated overnight at 4° C. with antibodies at 1:200 dilution. […] Immunoreactive bands were detected with ECL reagent kit (GE Healthcare BioSciences, Buckinghamshire, UK). The intensity of Western blot signals was analyzed using AlphaEase FC software (Alpha Innotech Corporation, Randburg, South Africa). […]

[2] = tested on: high-fat diet-fed C57BL/6J mouse; test: Histopathology of epididymal white adipose tissue (adipocyte hypertrophy); assay type: in vivo, C57BL/6J mice; conditions: mean area of epididymal adipocyte, HFD-fed mice
Protocol: as §1, §2
Adipocyte hypertrophy, the pathological enlargement of adipocytes, is often found in subjects with type 2 diabetes and hyperlipidemia. To verify the therapeutic effect of AnK on adipocyte hypertrophy, morphology of the epididymal white adipose tissue from mice of the HF group and the AnK-treated HFD groups was examined. Micrographs (magnification 200X) of the EWAT sections for each group were shown in FIG. 4 and analyzed to determine the mean area of an epididymal adipocyte.

[3] = HF + AnK1: AnK 10 mg/kg/day oral gavage 4 weeks
[4] = HF + AnK2: AnK 20 mg/kg/day oral gavage 4 weeks
[5] = HF + AnK3: AnK 40 mg/kg/day oral gavage 4 weeks
[6] = HF + Metf: metformin 300 mg/kg/day oral gavage 4 weeks

## C=C(CC[C@@H](C)[C@H]1CC[C@H]2C3=C(C(=O)C[C@]12C)[C@@]1(C)CC[C@@H](O)[C@](C)(O)[C@@H]1C[C@@H]3O)C(C)C(=O)O (stereo partly drawn) [AnK, 3α,4β,7β-trihydroxy-4α-methylergosta-8,24(28)-dien-11-on-25S-26-oic acid]
Human neutrophils
  anti-inflammatory effects (modulation of leukocyte activity, inhibition of reactive oxygen species production): anti-inflammatory effects
[1]; [3]
  Hepatocellular ballooning Mean score: 0.7 ± 0.2
[1]; [4]
  Hepatocellular ballooning Mean score: 0.5 ± 0.2
[1]; [5]
  Hepatocellular ballooning Mean score: 0.4 ± 0.2
Membrane GLUT4
  increase of membrane GLUT4 levels: 1.52-2.20 fold
[2]; [3]
  Adipocyte size: 6548.6 ± 214.7 μm^2
[2]; [4]
  Adipocyte size: 6483.8 ± 319.8 μm^2
[2]; [5]
  Adipocyte size: 5670.8 ± 281.6 μm^2

## CN(C)C(=N)N=C(N)N [Metf, metformin, reference compound]
[1]; [6]
  Hepatocellular ballooning Mean score: 0.7 ± 0.2
Membrane GLUT4
  increase of membrane GLUT4 levels: 1.86 fold
[2]; [6]
  Adipocyte size: 5873.7 ± 345.1 μm^2
